Laboratory results taken from PMC3426442 (Bioorganic & medicinal chemistry letters, 2012).

Legend:
NL4-3 V370A = conditions: V370A versus NL4-3, single cycle infection assay
[1] = in vitro; compared to A43D (A43D compared to bevirimat)
in vitro = conditions: human, microsomes
[2] = ref not given; cited from earlier work

Structure (SMILES)	times less potent against the resistant variant (NL4-3 V370A) [times]	microsomal / metabolic stability in words [1]	microsomal CLint (in vitro) [µL/min/mg]	half-life in vivo [2]
Cc1cn([C@H]2C[C@H](N=[N+]=[N-])[C@@H](CO)O2)c(=O)[nH]c1=O [AZT, 3′-azido-3′-deoxythymidine]	2	–	–	–
C=C(C)[C@@H]1CC[C@]2(C(=O)NCCCCCCCNC(C)=O)CC[C@]3(C)[C@H](CC[C@@H]4[C@@]5(C)CC[C@H](O)C(C)(C)[C@@H]5CC[C@]43C)[C@@H]12 [Compound 1]	–	poor	272	–
C=C(C)[C@@H]1CC[C@]2(C(=O)NCCCCCCCNC(=O)[C@H](CCC(N)=O)NC(=O)OC(C)(C)C)CC[C@]3(C)[C@H](CC[C@@H]4[C@@]5(C)CC[C@H](O)C(C)(C)[C@@H]5CC[C@]43C)[C@@H]12 [Compound 2]	–	–	366	–
C=C(C)[C@@H]1CC[C@]2(C(=O)NCCCCCCCCC(=O)N[C@@H](CCC(N)=O)C(=O)OC)CC[C@]3(C)[C@H](CC[C@@H]4[C@@]5(C)CC[C@H](O)C(C)(C)[C@@H]5CC[C@]43C)[C@@H]12 [Compound 13]	–	improved metabolic stability	230	–
C=C(C)[C@@H]1CC[C@]2(C(=O)NCCCCCCCCC(=O)N[C@@H](CCC(N)=O)C(=O)OCc3ccccc3)CC[C@]3(C)[C@H](CC[C@@H]4[C@@]5(C)CC[C@H](O)C(C)(C)[C@@H]5CC[C@]43C)[C@@H]12 [Compound 15]	–	improved metabolic stability	169	–
COC(=O)[C@H](CCC(N)=O)NC(=O)CCCCCCCCNC(=O)[C@]12CC[C@@H](C(C)C)[C@@H]1[C@H]1CC[C@@H]3[C@@]4(C)CC[C@H](O)C(C)(C)[C@@H]4CC[C@@]3(C)[C@]1(C)CC2 [Compound 38]	–	improved metabolic stability	219	–
CC(C)[C@@H]1CC[C@]2(C(=O)NCCCCCCCCC(=O)N[C@@H](CCC(N)=O)C(=O)O)CC[C@]3(C)[C@H](CC[C@@H]4[C@@]5(C)CC[C@H](O)C(C)(C)[C@@H]5CC[C@]43C)[C@@H]12 [Compound 39]	–	–	280	–
CC(C)(C)c1ccc(C(O)CCCN2CCC(C(O)(c3ccccc3)c3ccccc3)CC2)cc1 (stereo not drawn) [Terfenadine]	–	–	–	around 3.5 h
